“And” between values parts separate entries of the source, which are not always exact repeats. Equal entries are not always repeated.
Legend:
U251 glioblastoma cells = assay: MTT assay, U251; type: cell-based, human; conditions: for IC50: Homo sapiens, U-251, U251, 48 h, MTT, read-out: IC50 (50% inhibition of cell growth)
Experimental: U251 glioblastoma cells were treated with different drugs, and various parameters of cell growth and cell death were comparatively analyzed. As controls, cells remained either non-treated (Co) or were treated with the solvent DMSO alone. (FIG. 8A) Cells were treated with 30 or 50 μM DMC for 48 hours and the effects on cell growth/survival and on cell death were determined by various assays. […] Below the three panels, the expression levels of the ER stress indicators CHOP, GRP78, and caspase 4 at the end of the 48 hour drug treatment is shown, as determined by Western blot analysis with specific antibodies (actin served as a loading control. (FIG. 8B) Cells were treated with various concentrations of different drugs for 48 hours, as indicated, and cell death was measured with the cell death ELISA kit. (FIG. 8C) Cells were treated with DMC or various coxibs and traditional NSAIDs for 48 hours, as indicated, and cell growth and survival was determined with the conventional MTT assay (control, non-treated cells were set at 100%). MTT assays were performed in 96-well plates with the use of 3.0-8.0×10^3 cells per well as described in detail elsewhere (34). In parallel, the expression levels of CHOP and GRP78 protein were determined by Western blot analysis. […]
(§1) 3-(4,5-Dimethylthiazol-2-yl)-2,5-diphenyltetrazolium bromide (MTT) assays were performed in 96-well plates with the use of 3.0×10^3 to 8.0×10^3 cells per well as described in detail elsewhere (19).

[1] = system: cytoplasmic calcium levels in U251 cells; assay: Cytoplasmic calcium imaging (Fura-2/AM); type: cell-based, human; conditions: for elevation of cytoplasmic calcium levels: 100 μmol/L of each drug, Fura-2/AM loaded cells
Experimental: (A) U251 cells were treated with DMC or various coxibs and NSAIDs, and changes in intracellular calcium levels were recorded as described in Materials & Methods. […] Arrows indicate timepoint of drug addition. […] Essentially similar results were also obtained with the LN229 cell line.
The cells were loaded by incubating them with […] Fura-2/AM (Invitrogen) for 30 min at room temperature in external solution containing 138 mmol/L NaCl, 5.6 mmol/L KCl, 1.2 mmol/L MgCl2, 2.6 mmol/L CaCl2, 10 mmol/L HEPES, and 4 mmol/L glucose (pH 7.4). After loading, the cells were rinsed and transferred to the imaging setup. The cells were treated with individual drugs for 10 s, whereas fluorescence was elicited with the excitation wavelength alternating between 350 and 380 nm, using a Polychromator V (TILL Photonics GmbH, Grafelfing, Germany) to provide illumination via a Zeiss Axiovert 100 microscope with a Zeiss Fluar 40 oil objective (Carl Zeiss, Jena, Germany). Images were captured using a Cascade 512B CCD camera (Photometrics, Tucson, Ariz.) controlled with MetaFluor software (Molecular Devices, Sunnyvale, Calif.) at 0.5 Hz acquisition frequency. Ratios of the images obtained at 350 and 380 nm excitation were used to show changes in the cytoplasmic calcium concentration, according to the principles developed by Grynkiewicz et al. (31).

cellular translation = assay: Incorporation of 35S-methionine into newly translated proteins; type: cell-based; conditions: 2 h of treatment
[2] = Drug concentrations in plasma and tumor tissue by LC-MS; type: in vivo; conditions: 50 h; for Tumor tissue levels (approximately μmol/L) / Tumor tissue levels: U87 tumor tissue; for Maximum plasma levels: tumor-bearing nude mice
Experimental: Blood was collected in heparinized syringes using cardiac puncture of nude mice. The blood was allowed to settle at room temperature for 30 min followed by centrifugation at 2,000 rpm for 5 min at 4° C. The plasma was separated from the cells and transferred to a fresh tube. […] After thorough vortexing, plasma proteins were precipitated using 425 μL acetonitrile and vortexing for 1 min. The entire mixture was centrifuged at 4,500 rpm for 5 min to separate the protein precipitate, and 400 μL of the supernatant were transferred to a fresh tube. The sample was evaporated using a steady stream of air, and the dried residue was reconstituted using 150 μL of mobile phase consisting of 80:20 (v/v) methanol:10 mmol/L ammonium acetate (pH 4.5). To remove any undissolved precipitates, the samples were again centrifuged at 4,500 rpm for 5 min, and the supernatant was transferred to a fresh tube. Ten microliters of each sample were analyzed in duplicate by liquid chromatography mass spectrometry.
To determine the amount of drug in each sample, an Agilent 1100 high-pressure liquid chromatography system (Agilent Technologies, Santa Clara, Calif.) coupled onto a Sciex API 3000 triple quadruple tandem mass spectrometer (Applied Biosystems, Foster City, Calif.) was used. To separate the analytes, a Thermo HyPURITY C18 column (50×4.6 mm, 3 micron; Thermo Fisher Scientific, Inc., Waltham, Mass.) was used. The mobile phase consisted of 80:20 (v/v) methanol:10 mmol/L ammonium acetate (pH 4.5). […] The analytes were then introduced into the Sciex API 3000, which was set in the negative ion mode. […] The lower level of quantification of this assay was established at 5 ng/mL.

[3] = system: U87MG glioblastoma cell line; assay: MTT assay, U87MG; type: cell-based; conditions: Homo sapiens, U-87 MG, 48 h, read-out: IC50 (50% inhibition of cell growth)
Experimental: (§2) For comparison purposes to the known anti-multiple myeloma effects of bortezomib, the RPMI/8226 multiple myeloma cell line was included in (A).
as §1

CHOP protein = assay: Western blot of CHOP in various cancer cell lines; type: cell-based; conditions: glioblastoma, breast carcinoma, pancreatic carcinoma, Burkitt's lymphoma, multiple myeloma cell lines; Cxb 40 and 60 μM, DMC 30 and 50 μM; 48 hours
Experimental: Total cellular lysates were prepared and analyzed by Western blot analysis with specific antibodies to CHOP. As a control for equal loading, all blots were also analyzed with antibodies to actin (only one of these control blots is shown at the bottom). The tumor type of each cell line is indicated on the right.
Total cell lysates were prepared by lysis of cells with radioimmunoprecipitation assay buffer (28), and protein concentrations were determined using the bicinchoninic acid protein assay reagent (Pierce, Rockford, Ill.). For Western blot analysis, 50 Ag of each sample were processed as described (29). The primary antibodies were purchased from Cell Signaling Technologies (Beverly, Mass.), Cayman Chemical (Ann Arbor, Mich.), or Santa Cruz Biotechnology, Inc. (Santa Cruz, Calif.) and used according to the manufacturer's recommendations. The secondary antibodies were coupled to horseradish peroxidase and detected by chemiluminescence using the SuperSignal West substrate from Pierce. All immunoblots were repeated at least once to confirm the results.

[4] = system: LN229 glioblastoma cell line; assay: MTT assay, LN229; type: cell-based, human; conditions: LN229, 48 h
Experimental: as §2, §1

[5] = 30 mg/kg/d, average of two measurements
[6] = 30 mg/kg/d, half dose every 12 h into the stomach, average of two measurements
[7] = 90 mg/kg/d, average of two measurements
[8] = 90 mg/kg/d, half dose every 12 h into the stomach, average of two measurements
[9] = 150 mg/kg/d, average of two measurements
[10] = 150 mg/kg/d, half dose every 12 h into the stomach, average of two measurements
[11] = 180 mg/kg/d, average of two measurements
[12] = 180 mg/kg/d, half dose every 12 h into the stomach, average of two measurements

SMILES	IC50 (U251 glioblastoma cells) [µM]	elevation of cytoplasmic calcium levels [1]	Tumor tissue levels (approximately μmol/L) ([2]; 30 mg/kg/d) [µmol/L]	Tumor tissue levels [2, 5] [ng/mg]	Maximum plasma levels ([2]; 30 mg/kg/d) [µmol/L]	Maximum plasma levels [2, 6]	Tumor tissue levels (approximately μmol/L) ([2]; 90 mg/kg/d) [µmol/L]	Tumor tissue levels [2, 7] [ng/mg]	Maximum plasma levels ([2]; 90 mg/kg/d) [µmol/L]	Maximum plasma levels [2, 8]	Tumor tissue levels (approximately μmol/L) ([2]; 150 mg/kg/d) [µmol/L]	Tumor tissue levels [2, 9] [ng/mg]	Maximum plasma levels ([2]; 150 mg/kg/d) [µmol/L]	Maximum plasma levels [2, 10]	Tumor tissue levels (approximately μmol/L) ([2]; 180 mg/kg/d) [µmol/L]	Tumor tissue levels [2, 11] [ng/mg]	Maximum plasma levels ([2]; 180 mg/kg/d)	Maximum plasma levels [2, 12]	IC50 [3] [µM]	induction of CHOP protein (CHOP protein)	also measured
Cc1ccc(-c2cc(C(F)(F)F)nn2-c2ccc(S(N)(=O)=O)cc2)cc1 [celecoxib, 4-[5-(4-methylphenyl)-3-(trifluoromethyl)-1H-pyrazol-1-yl]benzenesulfonamide]	~50	pronounced calcium spike	~0.046	17.53	18.2	6,950 μg/L	~0.116	44.03	24.8	9,450 μg/L	~0.161	61.23	36.8	14,000 μg/L	~0.25	94.78	45 µmol/L	17,000 μg/L	~50	potently induce CHOP	detectable effect on cell growth and survival (MTT) (U251 glioblastoma cells; U251, 48 hours, concentrations of up to 100 μmol/L): reduced the viability of the cell culture; reduction of ongoing translation (cellular translation; 80 μmol/L): ~90%; Tumor tissue levels (approximately μmol/L) ([2]; 180 mg/kg/d, listed as Cxb): ~0.249 µmol/L; Maximum plasma levels ([2]; 180 mg/kg/d, listed as Cxb): 44.6 µmol/L; sensitivity of LN229 compared with the other glioblastoma cell lines [4]: slightly less sensitive
Cc1ccc(C)c(-c2cc(C(F)(F)F)nn2-c2ccc(S(N)(=O)=O)cc2)c1 [DMC, 4-[5-(2,5-dimethylphenyl)-3-(trifluoromethyl)-1H-pyrazol-1-yl]benzenesulfonamide]	< 40	pronounced calcium spike	~0.021	8.27	7.6	3,035 μg/L	~0.037	14.44	8.0	3,190 μg/L	~0.099	39.04	23.8	9,500 μg/L	~0.280	110.42	45 µmol/L and 45.5 µmol/L	18,200 μg/L	< 40	potently induce CHOP	cellular activity in MTT assays (U251 glioblastoma cells; U251, 30 and 50 μmol/L, 48 hours): reduced cellular activity; average maximum calcium peak compared with celecoxib ([1]; 100 μmol/L, difference not statistically significant): somewhat greater; reduction of ongoing translation (cellular translation; 60 μmol/L): ~90%; sensitivity of LN229 compared with the other glioblastoma cell lines [4]: slightly less sensitive

Reference: patent US9486461B2, “Methods and compositions for inducing apoptosis by stimulating ER stress” (UNIVERSITY OF SOUTHERN CALIFORNIA, priority 2007, dated 2016)
